Solubility data for 33 compounds are collected here from ChEMBL document CHEMBL5036347, “Design of the naphthyl-diarylpyrimidines as potent non-nucleoside reverse transcriptase inhibitors (NNRTIs) via structure-based extension into the entrance channel” (Eur J Med Chem, 2021).

Holding throughout (assay type): physicochemical
Holding throughout (settings): dose 0.1-10 mg

The nature of data set [1]: Water solubility of compound at pH 2 at 0.1 to 10 mg by HPLC-UV analysis.
Data set [2] in a line: Water solubility of compound at pH 7 at 0.1 to 10 mg by HPLC-UV analysis.
Data set [3] is described as follows: Water solubility of compound at pH 7.4 at 0.1 to 10 mg by HPLC-UV analysis.

In general, solubility refers to how much of the substance goes into solution per volume. Read a high solubility as a readily soluble substance.

As for `CC(=O)O.COc1cc2cc(C#N)ccc2c(OC)c1Oc1cc(N2CCC(O)C2)nc(Nc2ccc(C#N)cc2)n1` (centres undefined), the solubility in data set [1] is less than 1 µg/mL; in data set [2], less than 1 µg/mL; in data set [3] it was 3 µg/mL.
As to `CCNc1cc(Oc2c(OC)cc3cc(C#N)ccc3c2OC)nc(Nc2ccc(C#N)cc2)n1.Cc1ccc(S(=O)(=O)O)cc1`, the solubility in data set [1] is less than 1 µg/mL; in data set [2], less than 1 µg/mL; in data set [3], 12 µg/mL.
Regarding `CCNc1cc(Oc2c(OC)cc3cc(C#N)ccc3c2OC)nc(Nc2ccc(C#N)cc2)n1.O=C(O)/C=C\C(=O)O`, the solubility in data set [1] turned out to be 2 µg/mL; in data set [2], 1 µg/mL; in data set [3], 47 µg/mL.
For the compound `COc1cc2cc(C#N)ccc2c(OC)c1Oc1cc(N)nc(Nc2ccc(C#N)cc2)n1.O=C(O)C(F)(F)F`, the solubility in data set [1] is less than 1 µg/mL; in data set [2], 1 µg/mL; in data set [3], 3 µg/mL.
On the same counts, the results for `COc1cc2cc(C#N)ccc2c(OC)c1Oc1cc(N2CCC(O)C2)nc(Nc2ccc(C#N)cc2)n1.CS(=O)(=O)O` (centres undefined) are less than 1 µg/mL, less than 1 µg/mL and 2 µg/mL.
In the same order, the values of `CCNc1cc(Oc2c(OC)cc3cc(C#N)ccc3c2OC)nc(Nc2ccc(C#N)cc2)n1.O=S(=O)(O)O` are 9 µg/mL, 4 µg/mL and 115 µg/mL.
Regarding `CCNc1cc(Oc2c(OC)cc3cc(C#N)ccc3c2OC)nc(Nc2ccc(C#N)cc2)n1.O=CO`, the solubility is less than 1 µg/mL in data set [1], less than 1 µg/mL in data set [2] and 2 µg/mL in data set [3].
On to `COc1cc2cc(C#N)ccc2c(OC)c1Oc1cc(N2CCC(O)C2)nc(Nc2ccc(C#N)cc2)n1.O=C(O)C(F)(F)F` (centres undefined), for which the results for the solubility in data set [1], in data set [2] and in data set [3] were less than 1 µg/mL, less than 1 µg/mL and 1 µg/mL, respectively.
As for `CCNc1cc(Oc2c(OC)cc3cc(C#N)ccc3c2OC)nc(Nc2ccc(C#N)cc2)n1.O=C(O)C(F)(F)F`, the solubility in data set [1], in data set [2] and in data set [3] was less than 1 µg/mL in each case.
Consider `CC(=O)O.COc1cc2cc(C#N)ccc2c(OC)c1Oc1cc(N)nc(Nc2ccc(C#N)cc2)n1`, for which the solubility in data set [1], in data set [2] and in data set [3] was less than 1 µg/mL throughout.
For the compound `COc1cc2cc(C#N)ccc2c(OC)c1Oc1cc(N)nc(Nc2ccc(C#N)cc2)n1.O=C(O)C(O)C(O)C(=O)O`, the solubility in data set [1] was less than 1 µg/mL; in data set [2] it was less than 1 µg/mL; in data set [3], 29 µg/mL.
In the case of `COc1cc2cc(C#N)ccc2c(OC)c1Oc1cc(N2CCC(O)C2)nc(Nc2ccc(C#N)cc2)n1.O=S(=O)(O)O` (centres undefined), the solubility in data set [1] was less than 1 µg/mL; in data set [2], less than 1 µg/mL; in data set [3] it was 2 µg/mL.
In the case of `CCNc1cc(Oc2c(OC)cc3cc(C#N)ccc3c2OC)nc(Nc2ccc(C#N)cc2)n1.Cl`, the solubility in data set [1] was 9 µg/mL; in data set [2], less than 1 µg/mL; in data set [3], 11 µg/mL.
Regarding `COc1cc2cc(C#N)ccc2c(OC)c1Oc1cc(N)nc(Nc2ccc(C#N)cc2)n1.O=C(O)/C=C\C(=O)O`, the solubility in data set [1] worked out at 13 µg/mL; in data set [2] it was 7 µg/mL; in data set [3], 28 µg/mL.
As for `Br.CCNc1cc(Oc2c(OC)cc3cc(C#N)ccc3c2OC)nc(Nc2ccc(C#N)cc2)n1`, the solubility in data set [1], in data set [2] and in data set [3] was 1 µg/mL throughout.
As for `COc1cc2cc(C#N)ccc2c(OC)c1Oc1cc(N)nc(Nc2ccc(C#N)cc2)n1.Cl`, the solubility was determined as 6 µg/mL in data set [1], 1 µg/mL in data set [2] and 84 µg/mL in data set [3].
For `Br.COc1cc2cc(C#N)ccc2c(OC)c1Oc1cc(N)nc(Nc2ccc(C#N)cc2)n1`, the solubility in data set [1], in data set [2] and in data set [3] was less than 1 µg/mL throughout.
Consider `CCNc1cc(Oc2c(OC)cc3cc(C#N)ccc3c2OC)nc(Nc2ccc(C#N)cc2)n1.O=C(O)CC(O)(CC(=O)O)C(=O)O`, for which the solubility in data set [1] was 1 µg/mL; in data set [2] it was less than 1 µg/mL; in data set [3], 1 µg/mL.
In the case of `COc1cc2cc(C#N)ccc2c(OC)c1Oc1cc(N)nc(Nc2ccc(C#N)cc2)n1.O=CO`, the solubility in data set [1] is 1 µg/mL; in data set [2], less than 1 µg/mL; in data set [3] it was 2 µg/mL.
In the same order, the values of `CCNc1cc(Oc2c(OC)cc3cc(C#N)ccc3c2OC)nc(Nc2ccc(C#N)cc2)n1.O=C(O)C(O)C(O)C(=O)O` are 1 µg/mL, less than 1 µg/mL and 29 µg/mL.
In the same order, the values of `COc1cc2cc(C#N)ccc2c(OC)c1Oc1cc(N2CCC(O)C2)nc(Nc2ccc(C#N)cc2)n1.I` (centres undefined) are less than 1 µg/mL, less than 1 µg/mL and 9 µg/mL.
In the case of `COc1cc2cc(C#N)ccc2c(OC)c1Oc1cc(N)nc(Nc2ccc(C#N)cc2)n1.Cc1ccc(S(=O)(=O)O)cc1`, the solubility in data set [1] was 2 µg/mL; in data set [2] it was less than 1 µg/mL; in data set [3], 2 µg/mL.
As to `CCNc1cc(Oc2c(OC)cc3cc(C#N)ccc3c2OC)nc(Nc2ccc(C#N)cc2)n1.I`, the solubility in data set [1] is 1 µg/mL; in data set [2] it was less than 1 µg/mL; in data set [3], 1 µg/mL.
`COc1cc2cc(C#N)ccc2c(OC)c1Oc1cc(N2CCC(O)C2)nc(Nc2ccc(C#N)cc2)n1.O=CO` (centres undefined): the solubility in data set [1] is less than 1 µg/mL; in data set [2], less than 1 µg/mL; in data set [3], 3 µg/mL.
As for `CCNc1cc(Oc2c(OC)cc3cc(C#N)ccc3c2OC)nc(Nc2ccc(C#N)cc2)n1.CS(=O)(=O)O`, the solubility in data set [1] was less than 1 µg/mL; in data set [2], less than 1 µg/mL; in data set [3] it was 1 µg/mL.
Regarding `COc1cc2cc(C#N)ccc2c(OC)c1Oc1cc(N)nc(Nc2ccc(C#N)cc2)n1.O=C(O)CC(O)(CC(=O)O)C(=O)O`, the solubility was less than 1 µg/mL in data set [1], less than 1 µg/mL in data set [2] and 4 µg/mL in data set [3].
With `COc1cc2cc(C#N)ccc2c(OC)c1Oc1cc(N2CCC(O)C2)nc(Nc2ccc(C#N)cc2)n1.O=C(O)CC(O)(CC(=O)O)C(=O)O` (centres undefined), the solubility is less than 1 µg/mL in data set [1], less than 1 µg/mL in data set [2] and less than 2 µg/mL in data set [3].
Regarding `COc1cc2cc(C#N)ccc2c(OC)c1Oc1cc(N)nc(Nc2ccc(C#N)cc2)n1.I`, the results for the solubility in data set [1], in data set [2] and in data set [3] were less than 1 µg/mL, less than 1 µg/mL and 1 µg/mL, respectively.
As for `CC(=O)O.CCNc1cc(Oc2c(OC)cc3cc(C#N)ccc3c2OC)nc(Nc2ccc(C#N)cc2)n1`, the solubility in data set [1] was 1 µg/mL; in data set [2], less than 1 µg/mL; in data set [3], 19 µg/mL.
In the same order, the values of `COc1cc2cc(C#N)ccc2c(OC)c1Oc1cc(N2CCC(O)C2)nc(Nc2ccc(C#N)cc2)n1.Cl` (centres undefined) are less than 1 µg/mL, less than 1 µg/mL and 2 µg/mL.
Turning to `COc1cc2cc(C#N)ccc2c(OC)c1Oc1cc(N)nc(Nc2ccc(C#N)cc2)n1.CS(=O)(=O)O`, the solubility in data set [1] was 4 µg/mL; in data set [2] it was less than 1 µg/mL; in data set [3], 11 µg/mL.
As for `COc1cc2cc(C#N)ccc2c(OC)c1Oc1cc(N)nc(Nc2ccc(C#N)cc2)n1.O=S(=O)(O)O`, the solubility in data set [1] is less than 1 µg/mL; in data set [2], less than 1 µg/mL; in data set [3] it was 72 µg/mL.
As for `COc1cc2cc(C#N)ccc2c(OC)c1Oc1cc(N2CCC(O)C2)nc(Nc2ccc(C#N)cc2)n1.Cc1ccc(S(=O)(=O)O)cc1` (centres undefined), the values for the solubility in data set [1], in data set [2] and in data set [3] were 8 µg/mL, 6 µg/mL and 13 µg/mL, respectively.
